“And” between values parts separate entries of the source, which are not always exact repeats. Identical values can stand only once. Like-named read-outs stand apart in the source and are kept apart here.
Assays:
[1] = test system: biosynthesis of hepatic cholesterol (hepatic epoxysqualene cyclase); experiment: Influence on the biosynthesis of hepatic cholesterol in vivo: incorporation of radioactivity in the C27 sterols; conditions: oral (gavage), male OF1 mice, relative to control (vehicle) group, 14C-mevalonolactone at 1 h, sacrifice at 2 h
Experimental: The influence of the molecules on hepatic cholesterogenesis in vivo is tested on male OF1 mice. The animals are conditioned in reverse cycle two weeks before administration of the product.
At T=0 on the day of the experiment, the animals (3 to 6 mice/group) receive by oral administration (gavage) a suspension of the test product in the vehicle (3% gum arabic in water).
At T=1 h, the radioactive precursor (R,S-2-^14 C-mevalonolactone) in a 0.9% aqueous solution of NaCl is injected intraperitoneally [2.5 or 5 μCi/mouse (i.e. 9.25×10^4 Bq or 1.85×10^5 Bq respectively)].
At T=2 h, the animals are sacrificed by dislocation of the cervix; the livers are removed, rinsed, weighed and frozen in liquid nitrogen before being stored at -20° C.
During the conditioning period and on the day of the experiment, the animals have free access to food and drinking water.
The administration of the test product and the injection of the radioactive precursor take place in the middle of the dark period.
After thawing, the whole liver (or part of the liver) is homogenized in water at 0°-4° C. An aliquot of the homogenate is then saponified in alcoholic potassium hydroxide for 90 minutes at 80° C. The unsaponifiable lipids are then extracted with petroleum ether. The solvent is evaporated off to dryness under a stream of nitrogen and the dry residue is redissolved in a chloroform/methanol mixture (2/1). The products contained in the extract are then separated by chromatography on a thin layer of silica after migration in the system hexane/ethyl acetate (80/20).
The deposition of a standard mixture containing non-radioactive cholesterol, lanosterol, monoepoxysqualene, diepoxysqualene and squalene, together with ^14 C-cholesterol, makes it possible to determine the Rf of the compounds which serve as a reference for analysis of the radioactive profile of the unsaponifiable lipids.
The distribution of the radioactivity is analyzed with an automatic linear analyzer. The relative percentage of radioactivity in the C^27 -sterol peak of the control (vehicle) group represents 100% incorporation. Calculation of the influence is based on the ratio of the percentage of radioactivity in the C^27 -sterol peak of the treated group to that of the control group.

[2] = biological target: T1, epoxysqualene cyclase of the hepatic microsomes (Rattus norvegicus, UniProt P48450); experiment: Epoxysqualene cyclase inhibition: lanosterol formed from R,S-2,3-oxidosqualene by rat hepatic microsomes; type: biochemical, male Wistar rats
T1 construct: Rat hepatic microsomes are used as the enzyme source; from tissue; host or cells: liver microsomes of male Wistar rats
T1 sequence (P48450 1-733): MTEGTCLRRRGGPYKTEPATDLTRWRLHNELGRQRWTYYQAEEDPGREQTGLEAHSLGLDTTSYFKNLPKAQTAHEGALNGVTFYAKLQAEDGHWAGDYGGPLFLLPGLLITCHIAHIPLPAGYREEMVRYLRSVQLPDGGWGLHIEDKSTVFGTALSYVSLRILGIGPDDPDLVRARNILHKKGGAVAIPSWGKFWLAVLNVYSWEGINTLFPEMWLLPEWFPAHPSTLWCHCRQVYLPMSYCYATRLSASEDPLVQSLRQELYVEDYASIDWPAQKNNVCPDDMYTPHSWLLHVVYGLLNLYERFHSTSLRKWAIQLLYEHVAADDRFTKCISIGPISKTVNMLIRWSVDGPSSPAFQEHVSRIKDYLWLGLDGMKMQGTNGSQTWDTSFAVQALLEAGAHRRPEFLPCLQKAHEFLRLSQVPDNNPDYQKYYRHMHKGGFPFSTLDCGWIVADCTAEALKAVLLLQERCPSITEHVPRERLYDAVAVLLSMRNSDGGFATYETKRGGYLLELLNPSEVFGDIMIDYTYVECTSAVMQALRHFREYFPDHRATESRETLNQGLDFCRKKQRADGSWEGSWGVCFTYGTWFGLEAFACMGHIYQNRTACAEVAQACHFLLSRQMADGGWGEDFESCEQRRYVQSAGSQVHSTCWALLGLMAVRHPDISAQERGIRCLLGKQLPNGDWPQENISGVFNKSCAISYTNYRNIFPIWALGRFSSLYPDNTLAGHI
Experimental: The method consists in measuring the lanosterol formed from the R,S-2,3-oxidosqualene by the microsomal enzyme. The enzyme is prepared according to the method described by Ness G. C. (Ness G. C. et al., Biochem. J. (1986), 233,167-172).
Method of Measuring the Epoxysqualene Cyclase Activity
Rat hepatic microsomes are used as the enzyme source. The method consists in measuring the lanosterol formed from the R,S-2,3-oxidosqualene. The R,S-2,3-oxidosqualene, the test products and Tween®80, in the form of organic solutions (2-propanone or sulfinylbismethane) (25 μl ), are placed in test tubes and 400 μl of potassium phosphate buffer (0.1M, pH=7.4) are then added. The reaction is initiated by the addition of 100 μl of microsomes. For a final reaction volume of 525 μl , the mixture contains 150 μM of R,S-2,3-oxidosqualene, 0.1% of Tween®80 (to solubilize the R,S-2,3-oxidosqualene) and 250 μg of microsomal proteins. The reaction time is 60 minutes at 37° C. The reaction is stopped by the addition of 300 μl of methanolic potassium hydroxide (7%) and 20 μg of stigmasterol as an internal standard. After saponification at 80° C. for 30 minutes and stirring with a rotary stirrer, the sterols are extracted with 2 ml of hexane.
The lanosterol formed is separated from the R,S-2,3-oxidosqualene, the membrane cholesterol and the stigmasterol by gas chromatography after conversion to trimethylsilyl ethers. The derivatization of the sterols is carried out at 60° C. for 30 minutes after the addition of 25 μl of pyridine and 75 μl of the trimethylsilyl ester of 2,2,2-trifluoro-N-trimethylsilylethanimidic acid containing 1% of trimethylchlorosilane ethers.
After evaporation, the trimethylsilyl ethers are redissolved in 100 μl of hexane. An aliquot of this solution (2 μl) is chromatographed in the gas phase on an OV1 capillary column (0.32 mm, 25 m) under the following conditions: injector temperature=270° C., oven temperature=260° C., detector temperature=300° C., the carrier gas being nitrogen at a pressure of 7.10^4 Pa.
The potency of the molecules tested is expressed as the percentage inhibition of the amount of lanosterol formed for a concentration of 25.10^-6 mol of test product per liter. The results obtained with a number of compounds according to the invention are collated in Table II.

[3] = 25.10^-6 mol of test product per liter, 60 minutes at 37° C., pH=7.4, rat hepatic microsomes

Row | Structure (SMILES) | Percentage inhibition of the amount of lanosterol formed [2, 3] [%] | also measured
1 | C=CCN1CC=C2C(C)(C)[C@@H](NC(=O)C(F)(F)F)CC[C@]2(C)C1 (relative stereo) [Example 1, N-Trifluoroacetyl-1,2,3,5,6,7,8,8a-octahydro-2-(2-propen-1-yl)-5,5,8a-trimethyl-(6β,8aβ)-6-isoquinolineamine] | – | Percentage influence on the incorporation of radioactivity in the C27 sterols ([1]; 50 mg base/kg): -37%
2 | CCCCCCCCCCCCN1CC=C2C(C)(C)[C@@H](NC)CC[C@]2(C)C1 (relative stereo) [Example 12, N-Methyl-1,2,3,5,6,7,8,8a-octahydro-2-dodecyl-5,5,8a-trimethyl-(6β,8aβ)-6-isoquinolineamine ethanedioate] | 65 | –
3 | C=CCN1CC=C2C(C)(C)[C@@H](NC)CC[C@]2(C)C1 (relative stereo) [Example 13, N-Methyl-1,2,3,5,6,7,8,8a-octahydro-2-(2-propen-1-yl)-5,5,8a-trimethyl-(6β,8aβ)-6-isoquinolineamine ethanedioate] | – | Percentage inhibition of the amount of lanosterol formed [2]: 63%
4 | C=CCN1CC=C2C(C)(C)[C@@H](NC(C)=O)CC[C@]2(C)C1 (relative stereo) [Example 16, N-Acetyl-1,2,3,5,6,7,8,8a-octahydro-2-(2-propen-1-yl)-5,5,8a-trimethyl-(6β,8aβ)-6-isoquinolineamine 4-methylbenzenesulfonate] | – | Percentage influence on the incorporation of radioactivity in the C27 sterols ([1]; 50 mg base/kg): -14%
5 | CC1(C)C2=CCN(CC3CO3)C[C@@]2(C)CC[C@@H]1NC(=O)C(F)(F)F (stereo partly drawn) [Example 5, N-Trifluoroacetyl-1,2,3,5,6,7,8,8a-octahydro-2-[1-(2,3-epoxypropyl)]-5,5,8a-trimethyl-(6β,8aβ)-6-isoquinolineamine] | – | Percentage influence on the incorporation of radioactivity in the C27 sterols ([1]; 50 mg base/kg): -32%
6 | CC1(C)C2=CCN(CC(O)CO)C[C@@]2(C)CC[C@@H]1NC(=O)C(F)(F)F (stereo partly drawn) [Example 6, N-Trifluoroacetyl-1,2,3,5,6,7,8,8a-octahydro-2-[1-(2,3-dihydroxypropyl)]-5,5,8a-trimethyl-(6β,8aβ)-6-isoquinolineamine E-2-butenedioate] | 62 | Percentage influence on the incorporation of radioactivity in the C27 sterols ([1]; 100 mg base/kg): -74% and -78%

Second part, led by results:

Row | Percentage inhibition of the amount of lanosterol formed [2, 3] [%] | Structure (SMILES) | also measured
7 | 29 | CCCCCCCCCCCCN1CC=C2C(C)(C)[C@@H](N)CC[C@]2(C)C1 (relative stereo) [Example 14, 1,2,3,5,6,7,8,8a-Octahydro-2-dodecyl-5,5,8a-trimethyl-(6β,8aβ)-6-isoquinolineamine E-2-butenedioate] | –
8 | 100 | CCCCCCCCCCCCN1CC=C2C(C)(C)[C@@H](N(C)C)CC[C@]2(C)C1 (relative stereo) [Example 17, N,N-Dimethyl-1,2,3,5,6,7,8,8a-octahydro-2-dodecyl-5,5,8a-trimethyl-(6β,8aβ)-6-isoquinolineamine (E)-2-butenedioate] | –
9 | 66 | CCCCCCCCCCCCN1CC=C2C(C)(C)[C@H](N(C)C)CC[C@]2(C)C1 (relative stereo) [Example 18, N,N-Dimethyl-1,2,3,5,6,7,8,8a-octahydro-2-dodecyl-5,5,8a-trimethyl-(6α,8aβ)-6-isoquinolineamine ethanedioate] | –
10 | 89 | C=CCN1CC=C2C(C)(C)[C@@H](N(C)C)CC[C@]2(C)C1 (relative stereo) [Example 20, N,N-Dimethyl-1,2,3,5,6,7,8,8a-octahydro-2-(2-propen-1-yl)-5,5,8a-trimethyl-(6β,8aβ)-6-isoquinolineamine (E)-2-butenedioate] | Percentage influence on the incorporation of radioactivity in the C27 sterols ([1]; 50 mg base/kg): -21%
11 | 100 | CCCN1CC=C2C(C)(C)[C@@H](N(C)C)CC[C@]2(C)C1 (relative stereo) [Example 21, N,N-Dimethyl-1,2,3,5,6,7,8,8a-octahydro-2-propyl-5,5,8a-trimethyl-(6β,8aβ)-6-isoquinolineamine ethanedioate] | –
12 | 98 | CN(C)[C@H]1CC[C@]2(C)CN(CC=Cc3ccccc3)CC=C2C1(C)C (relative stereo) [Example 23, N,N-Dimethyl-1,2,3,5,6,7,8,8a-octahydro-2-(3-phenyl-2-propen-1-yl)-5,5,8a-trimethyl-(6β,8aβ)-6-isoquinolineamine 4-methylbenzenesulfonate] | –
13 | 92 | CN(C)[C@H]1CC[C@]2(C)CN(CC=C(c3ccccc3)c3ccccc3)CC=C2C1(C)C (relative stereo) [Example 24, N,N-Dimethyl-1,2,3,5,6,7,8,8a-octahydro-2-(3,3-diphenyl-2-propen-1-yl)-5,5,8a-trimethyl-(6β,8aβ)-6isoquinolineamine ethanedioate] | –
14 | 64 | CN(C)[C@H]1CC[C@]2(C)CN(CC(O)CO)CC=C2C1(C)C (stereo partly drawn) [Example 22, N,N-Dimethyl-1,2,3,5,6,7,8,8a-octahydro-2-[1-(2,3-dihydroxypropyl)]-5,5,8a-trimethyl-(6β,8aβ)-6-isoquinolineamine] | –
15 | 98 | CC(Cc1ccc(C(C)C)cc1)CN1CC=C2C(C)(C)[C@@H](N(C)C)CC[C@]2(C)C1 (stereo partly drawn) [Example 25, N,N-Dimethyl-1,2,3,5,6,7,8,8a-octahydro-2-[1-[2-methyl-3-[4-(1-methylethyl)phenyl]propyl]]-5,5,8a-trimethyl-(6β,8aβ)-6-isoquinolineamine (E)-2-butenedioate] | –
